We go through two compounds from paper PMC9127186, “Molecular Basis Underlying Hepatobiliary and Renal Excretion of Phenolic Acids of Salvia miltiorrhiza Roots (Danshen)” (Frontiers in Pharmacology, 2022).

One data set has as its target T1, human OCT1 (Homo sapiens, UniProt O15245).
T1 sequence (O15245 1-554): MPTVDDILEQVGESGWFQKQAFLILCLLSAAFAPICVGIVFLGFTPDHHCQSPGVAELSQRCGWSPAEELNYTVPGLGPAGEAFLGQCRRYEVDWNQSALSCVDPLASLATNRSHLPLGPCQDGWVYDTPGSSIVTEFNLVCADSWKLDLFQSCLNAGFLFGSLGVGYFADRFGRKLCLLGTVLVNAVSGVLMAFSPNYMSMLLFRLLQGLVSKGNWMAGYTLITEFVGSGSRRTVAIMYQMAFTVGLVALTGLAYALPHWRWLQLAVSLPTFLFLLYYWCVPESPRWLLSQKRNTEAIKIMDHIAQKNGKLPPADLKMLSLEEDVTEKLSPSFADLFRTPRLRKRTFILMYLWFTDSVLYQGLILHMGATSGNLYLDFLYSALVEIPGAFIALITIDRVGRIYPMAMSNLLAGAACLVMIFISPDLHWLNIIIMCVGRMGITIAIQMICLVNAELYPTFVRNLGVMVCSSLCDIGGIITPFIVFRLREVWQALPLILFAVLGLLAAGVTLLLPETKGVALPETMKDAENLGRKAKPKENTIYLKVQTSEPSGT
The note with it: 10 min, 100 μM.

A further data set has as its target T2, rat Oct2 (Rattus norvegicus, UniProt Q9R0W2).
T2 sequence (Q9R0W2 1-555): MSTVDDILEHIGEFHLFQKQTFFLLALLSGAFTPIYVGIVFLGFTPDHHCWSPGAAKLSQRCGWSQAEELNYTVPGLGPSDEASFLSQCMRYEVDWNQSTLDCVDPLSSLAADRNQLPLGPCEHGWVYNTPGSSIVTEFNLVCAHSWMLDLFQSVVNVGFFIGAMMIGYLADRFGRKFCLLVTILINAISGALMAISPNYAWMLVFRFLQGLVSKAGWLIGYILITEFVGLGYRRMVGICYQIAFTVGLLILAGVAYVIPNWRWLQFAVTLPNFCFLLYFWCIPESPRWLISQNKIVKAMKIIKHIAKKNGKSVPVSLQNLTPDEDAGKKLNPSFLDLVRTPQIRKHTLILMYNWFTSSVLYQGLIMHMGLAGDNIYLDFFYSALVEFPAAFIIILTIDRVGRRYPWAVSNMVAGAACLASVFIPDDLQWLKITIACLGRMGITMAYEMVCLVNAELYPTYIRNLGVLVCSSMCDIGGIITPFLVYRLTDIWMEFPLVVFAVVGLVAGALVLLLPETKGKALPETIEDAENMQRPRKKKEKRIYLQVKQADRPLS
The note with it: 10 min, 100 μM.

The next data set concerns the target T3, rat Pept1 (Rattus norvegicus, UniProt P51574).
T3 sequence (P51574 1-710): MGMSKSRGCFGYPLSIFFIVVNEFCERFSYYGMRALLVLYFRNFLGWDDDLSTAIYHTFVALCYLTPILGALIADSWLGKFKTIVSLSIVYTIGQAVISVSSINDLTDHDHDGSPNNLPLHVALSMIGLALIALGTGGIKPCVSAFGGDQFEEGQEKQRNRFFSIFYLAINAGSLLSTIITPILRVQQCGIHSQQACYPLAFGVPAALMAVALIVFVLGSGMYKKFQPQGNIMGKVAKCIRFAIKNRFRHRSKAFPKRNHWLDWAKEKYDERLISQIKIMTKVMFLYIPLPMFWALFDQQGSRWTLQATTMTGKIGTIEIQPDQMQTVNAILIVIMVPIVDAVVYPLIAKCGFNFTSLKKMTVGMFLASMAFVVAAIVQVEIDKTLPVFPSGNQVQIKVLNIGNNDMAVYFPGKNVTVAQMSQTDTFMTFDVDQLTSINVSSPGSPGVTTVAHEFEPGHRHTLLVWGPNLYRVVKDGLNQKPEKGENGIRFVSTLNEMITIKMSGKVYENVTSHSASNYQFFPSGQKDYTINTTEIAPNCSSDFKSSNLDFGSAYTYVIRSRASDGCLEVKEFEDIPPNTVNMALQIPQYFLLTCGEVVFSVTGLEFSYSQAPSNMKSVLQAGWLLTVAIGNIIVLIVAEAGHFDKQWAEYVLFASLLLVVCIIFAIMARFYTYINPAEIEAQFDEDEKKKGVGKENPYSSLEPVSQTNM
The following applies: 10 min, 100 μM, pH 6.

The next data set has as its target T4, rat Pept2 (Rattus norvegicus, UniProt Q63424).
T4 sequence (Q63424 1-729): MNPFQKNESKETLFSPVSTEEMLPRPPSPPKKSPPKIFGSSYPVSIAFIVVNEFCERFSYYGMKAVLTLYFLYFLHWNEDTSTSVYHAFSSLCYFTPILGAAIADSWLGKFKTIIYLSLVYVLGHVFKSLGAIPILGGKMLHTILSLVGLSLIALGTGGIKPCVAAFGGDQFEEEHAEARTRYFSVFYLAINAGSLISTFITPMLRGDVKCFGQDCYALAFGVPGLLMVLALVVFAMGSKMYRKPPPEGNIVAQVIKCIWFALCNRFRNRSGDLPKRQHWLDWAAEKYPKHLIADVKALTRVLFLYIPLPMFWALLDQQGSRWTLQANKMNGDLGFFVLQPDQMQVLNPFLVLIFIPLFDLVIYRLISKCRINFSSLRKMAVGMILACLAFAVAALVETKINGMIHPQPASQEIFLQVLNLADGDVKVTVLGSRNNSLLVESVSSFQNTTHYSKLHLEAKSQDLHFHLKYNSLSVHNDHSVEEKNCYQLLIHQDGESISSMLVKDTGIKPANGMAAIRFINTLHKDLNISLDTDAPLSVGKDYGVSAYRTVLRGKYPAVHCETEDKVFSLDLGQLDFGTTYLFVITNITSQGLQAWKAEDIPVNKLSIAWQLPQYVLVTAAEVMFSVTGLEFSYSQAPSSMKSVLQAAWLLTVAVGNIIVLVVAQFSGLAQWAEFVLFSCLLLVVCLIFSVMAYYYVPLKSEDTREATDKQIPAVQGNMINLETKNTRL
The following applies: 10 min, 100 μM, pH 6.

Structures are written as SMILES.

As for `O=C(/C=C/c1ccc(O)c(O)c1)O[C@H](Cc1ccc(O)c(O)c1)C(=O)O` [Rosmarinic acid, rosmarinic acid], the “TransportTC/TransportMC ratio (net transport ratio)” value on human OCT1 came to 1.46 ± 0.57; at rat Oct2 it was 0.75 ± 0.32; at rat Pept1, 1.14 ± 0.13; on rat Pept2 it was 0.84 ± 0.17.

On to `O=C(/C=C/c1ccc(O)c(O)c1/C=C/c1ccc(O)c(O)c1)O[C@H](Cc1ccc(O)c(O)c1)C(=O)O` [Salvianolic acid A, salvianolic acid A], for which the “TransportTC/TransportMC ratio (net transport ratio)” value is given as 1.04 ± 0.32 at human OCT1, 0.94 ± 0.33 on rat Oct2, 1.32 ± 0.13 on rat Pept1 and 0.84 ± 0.19 on rat Pept2.
